The values that follow come from patent publication US10173991B2, “Sulfone amide linked benzothiazole inhibitors of endothelial lipase” (BRISTOL-MYERS SQUIBB COMPANY, priority 2014, dated 2019).

pIC50: −log10 of the molar value.

Sequence of Endothelial lipase (EL) (Q9Y5X9 21-500): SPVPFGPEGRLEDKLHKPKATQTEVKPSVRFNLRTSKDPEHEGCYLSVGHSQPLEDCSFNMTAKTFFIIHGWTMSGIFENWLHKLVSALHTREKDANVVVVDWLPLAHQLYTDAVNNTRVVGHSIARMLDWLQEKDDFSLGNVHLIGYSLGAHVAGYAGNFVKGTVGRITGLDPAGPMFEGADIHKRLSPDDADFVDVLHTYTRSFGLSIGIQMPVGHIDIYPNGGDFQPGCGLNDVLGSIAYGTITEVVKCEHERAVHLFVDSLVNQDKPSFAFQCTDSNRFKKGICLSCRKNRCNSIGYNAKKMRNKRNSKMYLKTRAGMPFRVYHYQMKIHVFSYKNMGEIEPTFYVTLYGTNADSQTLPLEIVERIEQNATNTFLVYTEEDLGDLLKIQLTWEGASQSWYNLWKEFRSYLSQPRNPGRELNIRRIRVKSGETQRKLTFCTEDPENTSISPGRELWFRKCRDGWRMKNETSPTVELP

The first test concerns the target Endothelial lipase (EL) (Homo sapiens (Human), UniProt Q9Y5X9). Description: Endothelial lipase (EL) enzymatic assay with fluorescent substrate A10070 in DMPG vesicles. The format is biochemical.
Settings: not given
As to the method: Endothelial lipase (EL) and hepatic lipase (HL) activities were measured using a fluorescent substrate, A10070, (Invitrogen, CA) doped into an artificial vesicle containing DMPG (Avanti Polar Lipids) as the excipient. Vesicles were prepared by combining 571 μL of 29 mM DMPG in a 1:1 mixture of MeOH and CHCl3 with 2000 μL of 1 mM A10070 in a 1:1 mixture of MeOH and CHCl3. The mixture was dried under nitrogen in multiple vials then resuspended in 20 mL total volume of 50 mM HEPES pH 8.0 buffer containing 50 mM NaCl and 0.2 mM EDTA. The sample was allowed to sit at room temperature for 15 min and then was sonicated 3×4 mins on ice with a Branson Sonicator using duty cycle 1. This preparation provides vesicles with a mole fraction of 0.11 for the FRET substrate.
The enzymatic assay was measured using 384-well white Optiplates. Each well contained 20 μL of assay buffer (50 mM HEPES pH 8.0, 50 mM NaCl and 1 mM CaCl2) and 0.25 μL of a DMSO solution containing a compound of interest. EL or HL (10 μL) was added and allowed to incubate with the compound for 30 min at 37° C. The source of EL was conditioned media obtained from HT-1080 cells that were transformed using RAGE technology (Athersys) to overexpress endogenous EL, and HL was partially purified from conditioned media obtained from COS cells overexpressing HL. The reaction was started by the addition of 10 μL of a 1:10 dilution of vesicles. The final total reaction volume was […]. The reaction rates were measured on a Gemini plate reader with an excitation wavelength of 490 nm and an emission wavelength of 530 nm. Readings were taken over a period of 60 minutes, and the slope between 300 and 900 secs of the readout was used to calculate the rate of the reaction.
What is called pIC50 is the negative decadic logarithm of the IC50, by convention in mol/L. Take `CC(C)CS(=O)(=O)C(C(=O)NCC(=O)NC1CC1)c1nc2cc(F)c(-c3ccc(NC(=O)OCc4ccccc4)cc3)cc2s1` (centres unmarked) [Example 49, benzyl N-{4-[2-({[(cyclopropyl-carbamoyl)methyl]carbamoyl}(2-methylpropane-sulfonyl)methyl)-5-fluoro-1,3-benzothiazol-6-yl]phenyl}carbamate]: the pIC50 was 8.52.

`O=C(CNC(=O)C(c1nc2cc(F)c(-c3ccc(NC(=O)OCc4ccccc4)cc3)cc2s1)S(=O)(=O)C1CC1)NC1CC1` (centres unmarked) [Example 50, benzyl N-(4-{2-[(cyclopropane-sulfonyl) ({[(cyclopropyl-carbamoyl)methyl]carbamoyl}methyl]-5-fluoro-1,3-benzothiazol-6-yl}phenyl) carbamate] gave a pIC50 of 8.52.

In the case of `O=C(CNC(=O)C(c1nc2cc(F)c(-c3ccc(NC(=O)OCc4ccccc4)cc3)cc2s1)S(=O)(=O)CC1CC1)NC1CC1` (centres unmarked) [Example 51, benzyl N-{4-[2-({[(cyclopropyl-carbamoyl)methyl]carbamoyl} (cyclopropyl-methanesulfonyl)methyl)-5-fluoro-1,3-benzothiazol-6-yl]phenyl} carbamate], the pIC50 was 8.52.

`CCCS(=O)(=O)C(C(=O)NCC(=O)NC1CC1)c1nc2cc(F)c(-c3ccc(NC(=O)OCc4ccccc4)cc3)cc2s1` (centres unmarked) [Example 52, benzyl N-{4-[2-({[(cyclopropyl-carbamoyl)methyl]carbamoyl} (propane-1-sulfonyl)methyl)-5-fluoro-1,3-benzothiazol-6-yl]phenyl} carbamate] gave a pIC50 of 9.00.

As to `CCCCS(=O)(=O)C(C(=O)NCC(=O)NC1CC1)c1nc2cc(F)c(-c3ccc(NC(=O)OCc4ccccc4)cc3)cc2s1` (centres unmarked) [Example 53, benzyl N-(4-{2-[(butane-1-sulfonyl) ({[(cyclopropyl-carbamoyl)methyl]carbamoyl})methyl]-5-fluoro-1,3-benzothiazol-6-yl}phenyl) carbamate], the pIC50 was 8.70.

Take `O=C(CNC(=O)C(c1nc2cc(F)c(-c3ccc(NC(=O)OCc4ccccc4)cc3)cc2s1)S(=O)(=O)CC1CCCCC1)NC1CC1` (centres unmarked) [Example 54, benzyl N-(4-{2-[cyclohexyl-methanesulfonyl ({[(cyclopropyl-carbamoyl)methyl]carbamoyl})methyl]-5-fluoro-1,3-benzothiazol-6-yl}phenyl) carbamate]: the pIC50 is 9.00.

Compound `O=C(CNC(=O)C(c1nc2ccc(-c3ccc(F)nc3)cc2s1)S(=O)(=O)CCC(F)(F)F)NC1CC1` (centres unmarked) [Example 56, N-[(cyclopropyl-carbamoyl)methyl]-2-[6-(6-fluoropyridin-3-yl)-1,3-benzothiazol-2-yl]-2-(3,3,3-trifluoropropane-sulfonyl)acetamide] gave a pIC50 of 7.54.

The compound `CS(=O)(=O)C(C(=O)NCC(=O)NC1CC1)c1nc2ccc(-c3ccc(F)nc3)cc2s1` (centres unmarked) [Example 57, N-[(cyclopropyl-carbamoyl)methyl]-2-[6-(6-fluoropyridin-3-yl)-1,3-benzothiazol-2-yl]-2-methanesulfonyl-acetamide] had a pIC50 of 7.33.

As to `C=CCS(=O)(=O)C(C(=O)NCC(=O)NC1CC1)c1nc2ccc(-c3ccc(F)nc3)cc2s1` (centres unmarked) [Example 59, N-[(cyclopropyl-carbamoyl)methyl]-2-[6-(6-fluoropyridin-3-yl)-1,3-benzothiazol-2-yl]-2-(prop-2-ene-1-sulfonyl) acetamide], the pIC50 was 7.70.

`COCCS(=O)(=O)C(C(=O)NCC(=O)NC1CC1)c1nc2cc(-c3cccnc3C(F)(F)F)ccc2s1` (centres unmarked) [Example 61, N-[(cyclopropyl-carbamoyl)methyl]-2-(2-methoxyethane-sulfonyl)-2-{5-[2-(trifluoromethyl)pyridin-3-yl]-1,3-benzothiazol-2-yl}acetamide] gave a pIC50 of 8.30.

`COCCS(=O)(=O)C(C(=O)NCC(=O)NC1CC1)c1nc2cc(-c3cncc(Cl)c3)ccc2s1` (centres unmarked) [Example 62] showed a pIC50 of 8.30.

With `COCCS(=O)(=O)C(C(=O)NCC(=O)NC1CC1)c1nc2cc(-c3ccnc(C(F)(F)F)c3)ccc2s1` (centres unmarked) [Example 63, N-[(cyclopropyl-carbamoyl)methyl]-2-(2-methoxyethane-sulfonyl)-2-{5-[2-(trifluoromethyl)pyridin-4-yl]-1,3-benzothiazol-2-yl}acetamide], the pIC50 is 8.30.

For `COCCS(=O)(=O)C(C(=O)NCC(=O)NC1CC1)c1nc2cc(-c3cncc(OC)c3)ccc2s1` (centres unmarked) [Example 64, N-[(cyclopropyl-carbamoyl)methyl]-2-(2-methoxyethane-sulfonyl)-2-[5-(5-methoxypyridin-3-yl)-1,3-benzothiazol-2-yl]acetamide], the pIC50 was 7.96.

As to `COCCS(=O)(=O)C(C(=O)NCC(=O)NC1CC1)c1nc2cc(-c3ccc(C(F)(F)F)nc3)ccc2s1` (centres unmarked) [Example 66], the pIC50 was 7.92.

Consider `COCCS(=O)(=O)C(C(=O)NCC(=O)NC1CC1)c1nc2cc(-c3cnnc(C)c3)ccc2s1` (centres unmarked) [Example 67, N-[(cyclopropyl-carbamoyl)methyl]-2-(2-methoxyethane-sulfonyl)-2-[5-(6-methylpyridazin-4-yl)-1,3-benzothiazol-2-yl]acetamide], for which the pIC50 is 7.80.

For the compound `COCCS(=O)(=O)C(C(=O)NCC(=O)NC1CC1)c1nc2cc(-c3ccc(F)nc3F)ccc2s1` (centres unmarked) [Example 68, N-[(cyclopropyl-carbamoyl)methyl]-2-[5-(2,6-difluoropyridin-3-yl)-1,3-benzothiazol-2-yl]-2-(2-methoxyethane-sulfonyl) acetamide], the pIC50 is 7.72.

As for `CCOc1ccc(-c2ccc3sc(C(C(=O)NCC(=O)NC4CC4)S(=O)(=O)CCOC)nc3c2)cn1` (centres unmarked) [Example 69, N-[(cyclopropyl-carbamoyl)methyl]-2-[5-(6-ethoxypyridin-3-yl)-1,3-benzothiazol-2-yl]-2-(2-methoxyethane-sulfonyl) acetamide], the pIC50 was 7.64.

`COCCS(=O)(=O)C(C(=O)NCC(=O)NC1CC1)c1nc2cc(-c3ccnc(C)c3)ccc2s1` (centres unmarked) [Example 70, N-[(cyclopropyl-carbamoyl)methyl]-2-(2-methoxyethane-sulfonyl)-2-[5-(2-methylpyridin-4-yl)-1,3-benzothiazol-2-yl]acetamide] had a pIC50 of 7.62.

Turning to `COCCS(=O)(=O)C(C(=O)NCC(=O)NC1CC1)c1nc2cc(-c3ccc(N4CCCC4)nc3)ccc2s1` (centres unmarked) [Example 71, N-[(cyclopropyl-carbamoyl)methyl]-2-(2-methoxyethane-sulfonyl)-2-{5-[6-(pyaolidin-1-yl)pyridin-3-yl]-1,3-benzothiazol-2-yl} acetamide], the pIC50 is 7.60.

For the compound `COCCS(=O)(=O)C(C(=O)NCC(=O)NC1CC1)c1nc2cc(-c3ccc(Cl)nc3)ccc2s1` (centres unmarked) [Example 72, 2-[5-(6-chloropyridin-3-yl)-1,3-benzothiazol-2-yl]-N-[(cyclopropyl-carbamoyl)methyl]-2-(2-methoxyethane-sulfonyl) acetamide], the pIC50 was 7.60.

Compound `COCCS(=O)(=O)C(C(=O)NCC(=O)NC1CC1)c1nc2cc(-c3ccncc3F)ccc2s1` (centres unmarked) [Example 73, N-[(cyclopropyl-carbamoyl)methyl]-2-[5-(3-fluoropyridin-4-yl)-1,3-benzothiazol-2-yl]-2-(2-methoxyethane-sulfonyl) acetamide] showed a pIC50 of 7.55.

`COCCS(=O)(=O)C(C(=O)NCC(=O)NC1CC1)c1nc2cc(-c3ccnc(OC)c3)ccc2s1` (centres unmarked) [Example 74, N-[(cyclopropyl-carbamoyl)methyl]-2-(2-methoxyethane-sulfonyl)-2-[5-(2-methoxypyridin-4-yl)-1,3-benzothiazol-2-yl]acetamide] had a pIC50 of 7.51.

For `COCCS(=O)(=O)C(C(=O)NCC(=O)NC1CC1)c1nc2cc(-c3cncc(F)c3)ccc2s1` (centres unmarked) [Example 75, N-[(cyclopropyl-carbamoyl)methyl]-2-[5-(5-fluoropyridin-3-yl)-1,3-benzothiazol-2-yl]-2-(2-methoxyethane-sulfonyl) acetamide], the pIC50 is 7.51.

As to `COCCS(=O)(=O)C(C(=O)NCC(=O)NC1CC1)c1nc2cc(-c3ccnc(F)c3)ccc2s1` (centres unmarked) [Example 76, N-[(cyclopropyl-carbamoyl)methyl]-2-[5-(2-fluoropyridin-4-yl)-1,3-benzothiazol-2-yl]-2-(2-methoxyethane-sulfonyl)acetamide], the pIC50 was 7.49.

Staying with this test, now noted: EL from conditioned media of HT-1080 cells; 30 min preincubation at 37° C.
As to `O=C(CNC(=O)C(c1nc2ccc(-c3ccc(F)nc3)cc2s1)S(=O)(=O)Cc1ccccc1)NC1CC1` (centres unmarked) [Example 55, N-[(Cyclopropylcarbamoyl)methyl]-2-[6-(6-fluoropyridin-3-yl)-1,3-benzothiazol-2-yl]-2-phenylmethanesulfonylacetamide], the pIC50 is 7.59.

`COCCS(=O)(=O)C(C(=O)NCC(=O)NC1CC1)c1nc2ccc(-c3ccc(N(C)C(=O)OC(C)(C)C)cc3)cc2s1` (centres unmarked) [Example 60, tert-Butyl N-{4-[2-({[(cyclopropylcarbamoyl)methyl]carbamoyl}(2-methoxyethanesulfonyl)methyl)-1,3-benzothiazol-6-yl]phenyl}-N-methylcarbamate] had a pIC50 of 8.52.
